One may read the IC50 as the midpoint of a concentration-inhibition curve.

Where a name gives a salt, the structure may show the parent alone. A value given as a limit tells only on which side of the number the result lay.

The target of the assay is T1, human HPK1 (MAP4K1) (Homo sapiens, UniProt Q92918).
T1 construct: Recombinant human HPK1 kinase domain was obtained from ThermoFisher (Cat. #PV6357) and SignalChem (Cat. #M23-11G); purchased ThermoFisher; SignalChem PV6357; M23-11G
T1 sequence (Q92918 17-274 limits assumed): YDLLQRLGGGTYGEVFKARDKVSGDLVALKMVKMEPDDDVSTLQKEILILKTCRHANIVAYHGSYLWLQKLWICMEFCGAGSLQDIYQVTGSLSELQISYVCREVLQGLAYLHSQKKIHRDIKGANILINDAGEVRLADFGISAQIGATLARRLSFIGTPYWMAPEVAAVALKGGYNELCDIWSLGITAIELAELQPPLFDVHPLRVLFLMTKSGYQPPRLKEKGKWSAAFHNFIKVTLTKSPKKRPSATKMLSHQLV
Briefly: Biochemical assay for activity against HPK1 (ADP-Glo, MBP substrate). As to conditions: recombinant human HPK1 kinase domain, 1 nM enzyme, ADP-Glo luminescence. Put shortly: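 IC50s come from ADP-Glo luminescence after a 2 h room-temperature reaction phosphorylating MBP in the presence of ATP. Compound was first preincubated 15 min with 1 nM HPK1 kinase domain, human recombinant. Buffer: 50 mM HEPES pH 7.5, 150 mM NaCl, 3 mM TCEP, 10 mM MgCl2, 0.005% Tween-20, 0.01% BSA.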

`COc1cc2c(cc1Nc1ncc3cnn([C@H]4C[C@H](CNS(=O)(=O)C5CC5)C4)c3n1)CN(C)CC2` [Example 123, N-[[3-[6-[(6-methoxy-2-methyl-3,4-dihydro-1H-isoquinolin-7-yl)amino]pyrazolo[3,4-d]pyrimidin-1-yl]cyclobutyl]methyl]cyclopropanesulfonamide]: the concentration for half-maximal inhibition (IC50) was less than 100 nM.

In the case of `COc1cc2c(cc1Nc1ncc3cnn([C@H]4CC[C@H](O)CC4)c3n1)CN(CCF)CC2` [Example 153, trans-4-(6-((2-(2-fluoroethyl)-6-methoxy-1,2,3,4-tetrahydroisoquinolin-7-yl)amino)-1H-pyrazolo[3,4-d]pyrimidin-1-yl)cyclohexan-1-ol], the IC50 was less than 100 nM.

As to `COc1cc2c(cc1Nc1ncc3cnn([C@H]4C[C@@H](CO)C4)c3n1)CN(C)CC2` [Example 66, cis-[3-[6-[(6-methoxy-2-methyl-3,4-dihydro-1H-isoquinolin-7-yl)amino]pyrazolo[3,4-d]pyrimidin-1-yl]cyclobutyl]methanol], the IC50 was less than 100 nM.

Take `COc1cc2c(cc1Nc1ncc3cnn(C[C@@H]4C[C@@H]5C[C@@H]5N4C(C)=O)c3n1)CN(C)CC2` [Example 216, 1-[(1S,3S,5S)-3-[[6-[(6-methoxy-2-methyl-3,4-dihydro-1H-isoquinolin-7-yl)amino]pyrazolo[3,4-d]pyrimidin-1-yl]methyl]-2-azabicyclo[3.1.0]hexan-2-yl]ethanone]: the IC50 is less than 100 nM.

On to `COc1cc2c(cc1Nc1ncc3cnn(C[C@H]4CN(C(C)=O)CCO4)c3n1)CN(C)CC2` [Example 127, (R)-1-(2-((6-((6-methoxy-2-methyl-1,2,3,4-tetrahydroisoquinolin-7-yl)amino)-1H-pyrazolo[3,4-d]pyrimidin-1-yl)methyl)morpholino)ethan-1-one trifluoroacetate], for which the half-inhibitory concentration (IC50) was less than 100 nM.

As to `CCC(=O)N1CCC[C@H]1Cn1ncc2cnc(Nc3cc4c(cc3OC)CCN(C)C4)nc21` [Example 112, (S)-1-(2-((6-((6-methoxy-2-methyl-1,2,3,4-tetrahydroisoquinolin-7-yl)amino)-1H-pyrazolo[3,4-d]pyrimidin-1-yl)methyl)pyrrolidin-1-yl)propan-1-one trifluoroacetate], the IC50 was less than 100 nM.

As for `COCCN1CCc2cc(OC)c(Nc3ncc4cnn(C[C@@H]5CCCN5C(C)=O)c4n3)cc2C1` [Example 197, (S)-1-(2-((6-((6-methoxy-2-(2-methoxyethyl)-1,2,3,4-tetrahydroisoquinolin-7-yl)amino)-1H-pyrazolo[3,4-d]pyrimidin-1-yl)methyl)pyrrolidin-1-yl)ethan-1-one Hydrochloride], the IC50 was less than 100 nM.

`CN1CCc2ccc(Nc3ncc4cnn([C@@H]5CCOC5)c4n3)cc2C1` [Example 20, (R)-2-methyl-N-(1-(tetrahydrofuran-3-yl)-1H-pyrazolo[3,4-d]pyrimidin-6-yl)-1,2,3,4-tetrahydroisoquinolin-7-amine]: the IC50 is less than 100 nM.

On to `COc1cc2c(cc1Nc1ncc3cnn(CC4CCCNC4=O)c3n1)CN(C)CC2` (centres unmarked) [Example 218, 3-[[6-[(6-methoxy-2-methyl-3,4-dihydro-1H-isoquinolin-7-yl)amino]pyrazolo[3,4-d]pyrimidin-1-yl]methyl]piperidin-2-one], for which the IC50 was less than 100 nM.

In the case of `CCOC(=O)CCCn1ncc2cnc(Nc3ccc4c(c3)CN(C)CC4)nc21` [Example 8, Ethyl 4-(6-((2-methyl-1,2,3,4-tetrahydroisoquinolin-7-yl)amino)-1H-pyrazolo[3,4-d]pyrimidin-1-yl)butanoate], the IC50 is less than 100 nM.

As to `COc1cc2c(cc1Nc1ncc3cnn(C[C@@H]4C[C@H]5C[C@H]5N4C(C)=O)c3n1)CN(C)CC2` [Example 215, 1-[(1R,3S,5R)-3-[[6-[(6-methoxy-2-methyl-3,4-dihydro-1H-isoquinolin-7-yl)amino]pyrazolo[3,4-d]pyrimidin-1-yl]methyl]-2-azabicyclo[3.1.0]hexan-2-yl]ethanone], the IC50 is less than 100 nM.

As for `COc1cc2c(cc1Nc1ncc3cnn(C[C@@H]4[C@@H](C)CCN4C(C)=O)c3n1)CN(CCO)CC2` [Example 223, 1-((2S,3S)-2-((6-((2-(2-hydroxyethyl)-6-methoxy-1,2,3,4-tetrahydroisoquinolin-7-yl)amino)-1H-pyrazolo[3,4-d]pyrimidin-1-yl)methyl)-3-methylpyrrolidin-1-yl)ethan-1-one], the IC50 is less than 100 nM.

`COc1cc2c(cc1Nc1ncc3cnn([C@H]4CC[C@@H](C(=O)N(C)C)CC4)c3n1)CN(C)CC2` [Example 54, (1s,4s)-4-(6-((6-methoxy-2-methyl-1,2,3,4-tetrahydroisoquinolin-7-yl)amino)-1H-pyrazolo[3,4-d]pyrimidin-1-yl)-N,N-dimethylcyclohexane-1-carboxamide]: the IC50 was less than 100 nM.

As for `COc1cc2c(cc1Nc1ncc3cnn([C@H]4CC[C@H](NC(=O)CO)CC4)c3n1)CN(C)CC2` [Example 74, trans-2-hydroxy-N-[4-[6-[(6-methoxy-2-methyl-3,4-dihydro-1H-isoquinolin-7-yl)amino]pyrazolo[3,4-d]pyrimidin-1-yl]cyclohexyl]acetamide], the IC50 was less than 100 nM.

Turning to `COc1nc2c(cc1Nc1ncc3cnn(C[C@@H]4CC[C@H](C)N4C(C)=O)c3n1)CN(C)CC2` [Example 172, 1-[(2S,5S)-2-[[6-[(2-methoxy-6-methyl-7,8-dihydro-5H-1,6-naphthyridin-3-yl)amino]pyrazolo[3,4-d]pyrimidin-1-yl]methyl]-5-methyl-pyrrolidin-1-yl]ethenone], the IC50 is less than 100 nM.

Turning to `COc1cc2c(cc1Nc1ncc3cnn(CC4CCCCO4)c3n1)CN(C)CC2` (racemic) [Example 201, (S)-6-methoxy-2-methyl-N-(1-((tetrahydro-2H-pyran-2-yl)methyl)-1H-pyrazolo[3,4-d]pyrimidin-6-yl)-1,2,3,4-tetrahydroisoquinolin-7-amine and (R)-6-methoxy-2-methyl-N-(1-((tetrahydro-2H-pyran-2-ylmethyl)-1H-pyrazolo[3,4-d]pyrimidin-6-yl)-1,2,3,4-tetrahydroisoquinolin-7-amine Hydrochloride, Racemic Mixture], the IC50 is less than 100 nM.

Take `COc1cc2c(cc1Nc1ncc3c(C)nn(C4COC4)c3n1)CN(C)CC2` [Example 3, 6-methoxy-2-methyl-N-[3-methyl-1-(oxetan-3-yl)pyrazolo[3,4-d]pyrimidin-6-yl]-3,4-dihydro-1H-isoquinolin-7-amine]: the IC50 was less than 100 nM.

For the compound `COc1cc2c(cc1Nc1ncc3cnn(C[C@@H]4C[C@@H]4F)c3n1)CN(C)CC2` (racemic) [Example 207, N-(1-(((cis)-2-fluorocyclopropyl)methyl)-1H-pyrazolo[3,4-d]pyrimidin-6-yl)-6-methoxy-2-methyl-1,2,3,4-tetrahydroisoquinolin-7-amine], the half-maximal inhibitory concentration (IC50) is less than 100 nM.

In the case of `COc1cc2c(cc1Nc1ncc3cnn([C@@H]4CCC[C@H](CO)C4)c3n1)CN(C)CC2` (relative stereo) [Example 22, cis-3-(6-((6-methoxy-2-methyl-1,2,3,4-tetrahydroisoquinolin-7-yl)amino)-1H-pyrazolo[3,4-d]pyrimidin-1-ylcyclohexyl)methanol], the IC50 is less than 100 nM.

`CN1CCc2c(cc(Nc3ncc4cnn([C@@H]5CCC[C@@H](C(N)=O)C5)c4n3)cc2C(F)(F)F)C1` [Example 180, (1R,3R)-3-(6-((2-methyl-5-(trifluoromethyl)-1,2,3,4-tetrahydroisoquinolin-7-yl)amino)-1H-pyrazolo[3,4-d]pyrimidin-1-yl)cyclohexane-1-carboxamide]: the IC50 was less than 100 nM.

Turning to `COc1cc2c(cc1Nc1ncc3cnn(C[C@@H]4CCC[C@H]4C(=O)O)c3n1)CN(C)CC2` (racemic) [Example 182, racemic trans-2-((6-((6-methoxy-2-methyl-1,2,3,4-tetrahydroisoquinolin-7-yl)amino)-1H-pyrazolo[3,4-d]pyrimidin-1-yl)methyl)cyclopentane-1-carboxylic Acid], the IC50 was less than 100 nM.

`COc1cc2c(cc1Nc1ncc3cnn(CC4CC(CO)C4)c3n1)CN(C)CC2` (centres unmarked) [Example 61, (3-((6-((6-methoxy-2-methyl-1,2,3,4-tetrahydroisoquinolin-7-yl)amino)-1H-pyrazolo[3,4-d]pyrimidin-1-yl)methyl)cyclobutyl)methanol]: the IC50 is less than 100 nM.

Take `COC(=O)NCCn1ncc2cnc(Nc3cc4c(cc3OC)CCN(C)C4)nc21` [Example 89, methyl N-[2-[6-[(6-methoxy-2-methyl-3,4-dihydro-1H-isoquinolin-7-yl)amino]pyrazolo[3,4-d]pyrimidin-1-yl]ethyl]carbamate]: the IC50 fell in the range of 100 to 250 nM.

Turning to `COc1cc2c(cc1Nc1ncc3cnn(CCC(N)=O)c3n1)CN(C)CC2` [Example 86, 3-[6-[(6-methoxy-2-methyl-3,4-dihydro-1H-isoquinolin-7-yl)amino]pyrazolo[3,4-d]pyrimidin-1-yl]210ropenamide], the IC50 was less than 100 nM.

`CC(=O)N1CCC[C@H]1Cn1ncc2cnc(Nc3ccc4c(c3)CN(C)CC4)nc21` [Example 139, (S)-1-(2-((6-((2-methyl-1,2,3,4-tetrahydroisoquinolin-7-yl)amino)-1H-pyrazolo[3,4-d]pyrimidin-1-yl)methyl)pyrrolidin-1-yl)ethan-1-one]: the IC50 is less than 100 nM.

As for `COc1cc2c(cc1Nc1ncc3cnn(C[C@@H]4CCCN4C(N)=O)c3n1)CN(C)CC2` [Example 217, (2S)-2-[[6-[(6-methoxy-2-methyl-3,4-dihydro-1H-isoquinolin-7-yl)amino]pyrazolo[3,4-d]pyrimidin-1-yl]methyl]pyrrolidine-1-carboxamide], the IC50 was less than 100 nM.

Source of the values: patent publication US11918582B2 (RAPT Therapeutics, Inc., priority 2021, dated 2024).
